Measurements taken from patent US9708557B2, “Process for the treatment of liquefied hydrocarbon gas using 2-amino-2(hydroxymethyl) propane-1,3-diol compounds” (Dow Global Technologies LLC, priority 2012, dated 2017).

Key:
[1] = pKa by automated Mettler Toledo titration; conditions: 50 weight % aqueous amine solution
[2] = Solubility of tested amine in heptane phase (gas chromatography, toluene internal standard); conditions: heptane 10 g, toluene 0.1 g, amine 2.5 g mixed at 20° C. for 1 hour, decanted 15 minutes; average of three injections
Experimental: A solution of heptane (10 g), toluene (0.1 g) and the tested amine (2.5 g) are mixed at 20° C. for 1 hour. The mixture is decanted for 15 minutes and the neat heptane phase is analyzed by gas chromatography using toluene as internal standard. The injection is repeated three times and peak areas of tested amine are averaged.

| pKa [1] | area counts (GC peak area of tested amine in neat heptane phase) [2] | Structure (SMILES) |
| --- | --- | --- |
| 9.1 | 50 area counts | CN(C)C(CO)(CO)CO [DMTA, 2-dimethylamino-2-(hydroxymethyl)propane-1,3-diol] |
|  | 0 area counts | NC(CO)(CO)CO [TA, 2-amino-2-(hydroxymethyl)propane-1,3-diol] |
